Results on five compounds are retold here after US7589123B2, “Chemical compounds” (Phytopharm PLC, priority 2006, dated 2009).

Data set [1] concerns α-smooth muscle actin (α-SMA) mRNA. The data set is described as follows: Anti-remodelling activity in human lung fibroblasts (HFL1): TGFβ-induced α-SMA mRNA (Assay 4). As to conditions: Homo sapiens, HFL1 cells, TGFβ 10 ng/ml, 24 h, read-out: Inhibition of α-SMA mRNA synthesis (%). The format is cell-based. The protocol: A human foetal lung fibroblast cell line (HFL1 cells; ATCC accession number CCl-153) was used in this assay. The cells were cultured in medium containing a low level of foetal bovine serum (FBS; 0.1%) for 24 h. After 24 h of culturing the medium was changed to: (a) Control medium (medium containing 10% FBS, 1% phosphate saline and 0.5 mM L-glutamine), (b) Control medium and transforming growth factor beta (TGFβ; 10 ng/ml), (c) Control medium and TGFβ and test compounds (3 and 30 μM). The medium was collected after 24 h and the total mRNA extracted in Tri-reagent. The level of mRNA coding for α-smooth muscle actin (α-SMA) was assessed by real-time reverse transcription-polymerase chain reaction (rtRT-PCR) using primer couples that allow the amplification of α-SMA mRNA. Liver glyceraldehydes 3-phosphate dehydrogenase (GADPH) was used as a reference marker in this experiment. The inhibition of the TGTβ-induced overexpression of α-SMA mRNA by the test compounds was quantified.

The target in another data set is T1, 5-lipoxygenase (Homo sapiens, UniProt P09917).
T1 construct: endogenous in cells; host or cells: human peripheral blood mononuclear leukocytes (PBMLs)
T1 sequence (P09917 1-674): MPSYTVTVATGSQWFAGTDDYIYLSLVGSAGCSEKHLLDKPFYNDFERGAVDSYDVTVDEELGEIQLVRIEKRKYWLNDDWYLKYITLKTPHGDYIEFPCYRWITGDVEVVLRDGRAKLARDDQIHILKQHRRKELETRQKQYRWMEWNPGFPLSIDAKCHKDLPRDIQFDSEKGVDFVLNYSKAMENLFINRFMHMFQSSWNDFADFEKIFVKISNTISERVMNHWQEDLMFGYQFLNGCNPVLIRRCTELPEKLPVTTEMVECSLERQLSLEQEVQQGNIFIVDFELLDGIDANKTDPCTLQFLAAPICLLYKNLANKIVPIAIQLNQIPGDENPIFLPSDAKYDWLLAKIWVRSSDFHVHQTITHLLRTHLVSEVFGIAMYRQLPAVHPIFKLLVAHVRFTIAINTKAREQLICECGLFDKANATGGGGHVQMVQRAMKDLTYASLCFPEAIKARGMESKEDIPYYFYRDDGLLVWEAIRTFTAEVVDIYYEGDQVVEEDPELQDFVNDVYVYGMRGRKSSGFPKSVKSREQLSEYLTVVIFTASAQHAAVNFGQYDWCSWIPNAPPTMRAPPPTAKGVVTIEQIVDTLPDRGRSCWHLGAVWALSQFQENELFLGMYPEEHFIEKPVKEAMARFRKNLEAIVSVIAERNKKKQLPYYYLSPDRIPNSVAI
The data set is described as follows: 5-lipoxygenase activity (LTB4) in human peripheral blood mononuclear leukocytes (Assay 6). It is filed as cell-based. As to conditions: human PBMLs, A23187 30 μM, read-out: Inhibition of 5-LO (%). The protocol: Human peripheral blood mononuclear leukocytes (PBMLs) were isolated using a Ficoll-Paque density gradient. Human peripheral blood mononuclear leukocytes (5×10^6 cells) were incubated with A23187 (30 μM), a divalent cation ionophore used to initiate the biosynthesis of […], and with vehicle (0.1% DMSO) or test compound (3 and 30 μM) in Hank's balanced salt solution (HBBS) buffer, pH 7.4 at 37° C. for 15 min. The PBML solution was neutralized with NaOH (1 N) and centrifuged at 1000 g for 10 min and the supernatant collected. The concentration of leukotriene B4 (LTB4) in the supernatant was measured using an enzyme immunoassay kit (Assay Design Inc.). A reduction in the concentration of LTB4 indicated an inhibition of the enzyme 5-lipoxygenase (Table 11).

Another data set deals with WI-38 cells. Put plainly: Viability of WI-38 cells, Alamar Blue (Assay 5). The format is cell-based, human. The procedure:
(§1) Human diploid lung fibroblasts (WI-38 cells) were incubated overnight in the presence of IL-1α (1 nM) and test compound (3 and 30 μM) in modified Eagle medium at pH 7.3 containing foetal bovine serum (10%) at 37° C. The supernatant was assayed by radioimmunoassay for released PGE2 and the inhibition of PGE2 by test compound calculated (Table 10). The viability of the cells was then assessed by washing with Roswell Park Memorial Institute medium and adding Alamar Blue reagent before being incubated at 37° C. for 4 h. Living cells take up Alamar Blue and emit fluorescence when excited. Fluorescence intensity was measured using a SpectroFluor Plus plate reader with excitation at 530 nm and emission at 590 nm (Table 10).
Background: The colour change of resazurin is a common sign of viable cells or microbes.

A further data set addresses TRPV1 receptor (Rattus norvegicus, UniProt O35433). Put plainly: TRPV1 modulation in DRG neurones: CGRP release in absence and presence of capsaicin (Assay 2). Also on record: The culture used for this experiment contained sensory neurones, Schwann cells and fibroblasts; endogenous in cells; host or cells: primary rat DRG sensory neurone culture (with Schwann cells and fibroblasts). The format is cell-based. As to conditions: 20 min; for inhibition at 3 µM: 3 μM with capsaicin 1 μM; for inhibition at 3 µM / inhibition at 30 µM: −ve: inhibition, +ve: potentiation of capsaicin response, read-out: Effect of test compounds on capsaicin (1 μM)-induced CGRP release (%); for inhibition at 30 µM: 30 μM with capsaicin 1 μM; for Emax at 3 µM: test compound alone 3 μM; for Emax at 3 µM / Emax at 30 µM: rat DRG sensory neurones, read-out: CGRP release (% of capsaicin (1 μM) response); for Emax at 30 µM: test compound alone 30 μM.

In data set [2] the test system is histamine-induced contractions in guinea pig ileum. Put plainly: Inhibition of histamine-induced contractions in guinea pig ileum (Assay 3). As to conditions: Cavia porcellus, histamine 1.7 μM, read-out: Inhibition of histamine-induced contraction (%). The protocol: (§2) Duncan Hartley derived male guinea pigs (325±25 g) were suppressed by CO2 overexposure, the abdominal cavity was exposed and ileal segments were removed. Small strips of ileum were suspended in organ baths containing Krebs solution (composition in g/l: NaCl 6.89, KCl 0.35, CaCl2 0.277, KH2PO4 0.163, MgSO4.7H2O 0.296, NaHCO3 2.1 glucose 1.8). The solution was kept at 32° C. and gassed with O2 (95%)-CO2 (5%) to maintain pH at 7.4. Mechanical activity was recorded by means of isotonic transducers. A resting tension of 1 g was applied to muscle strips before being equilibrated for 1 h, prior to test compound addition. Each preparation was washed twice at 15 min intervals during the equilibration.
(§3) Histamine (1.7 μM; approximately EC60-70) or 5-hydroxytryptamine (5-HT, 2.6 μM; approximately EC60-70) was applied for 5 min and the amplitude of the contraction recorded. The histamine or 5-HT was then washed out until the ileal tissue returned to baseline. Five min after returning to baseline test compound (3 and 30 μM) was applied and the amplitude of the contraction (if any) was recorded. In the continuous presence of test compound, histamine or 5-HT was re-applied and the inhibition of the response was recorded.

The test system of data set [3] is 5-HT-induced contractions in guinea pig ileum. Put plainly: Inhibition of 5-HT-induced contractions in guinea pig ileum (Assay 3). As to conditions: Cavia porcellus, 5-HT 2.6 μM, read-out: Inhibition of 5-HT-induced contraction (%). The procedure:
as §2, §3

The subject of data set [4] is IL-1α-induced PGE2 release. Put plainly: IL-1α-induced PGE2 release in human diploid lung fibroblasts (WI-38) (Assay 5). It is filed as cell-based. As to conditions: Homo sapiens, WI-38 cells, IL-1α 1 nM, overnight. The procedure:
as §1

Sequence of TRPV1 receptor (O35433 whole entry): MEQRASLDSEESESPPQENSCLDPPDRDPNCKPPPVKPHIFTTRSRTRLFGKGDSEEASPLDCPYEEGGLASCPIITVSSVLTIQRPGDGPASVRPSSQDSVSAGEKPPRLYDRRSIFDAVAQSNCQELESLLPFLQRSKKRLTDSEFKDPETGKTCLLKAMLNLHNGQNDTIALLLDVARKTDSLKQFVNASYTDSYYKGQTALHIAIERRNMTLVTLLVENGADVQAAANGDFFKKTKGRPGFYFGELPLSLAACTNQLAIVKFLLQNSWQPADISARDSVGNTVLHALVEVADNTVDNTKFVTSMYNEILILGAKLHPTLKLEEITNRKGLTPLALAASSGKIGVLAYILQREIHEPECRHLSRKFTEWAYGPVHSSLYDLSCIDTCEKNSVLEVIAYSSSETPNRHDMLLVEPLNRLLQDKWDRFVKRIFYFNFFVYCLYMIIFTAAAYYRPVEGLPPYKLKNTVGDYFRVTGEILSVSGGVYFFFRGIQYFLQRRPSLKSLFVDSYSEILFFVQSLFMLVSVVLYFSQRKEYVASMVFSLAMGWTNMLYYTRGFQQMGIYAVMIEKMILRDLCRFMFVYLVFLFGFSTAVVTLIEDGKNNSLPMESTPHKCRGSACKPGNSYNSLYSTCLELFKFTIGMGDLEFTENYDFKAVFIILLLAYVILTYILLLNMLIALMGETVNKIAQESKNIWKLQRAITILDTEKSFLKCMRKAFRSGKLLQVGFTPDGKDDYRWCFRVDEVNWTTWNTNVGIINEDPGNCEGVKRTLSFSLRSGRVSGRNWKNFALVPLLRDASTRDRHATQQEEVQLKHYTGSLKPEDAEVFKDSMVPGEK

With `COc1cc(CCC(=O)C(Cc2ccccc2)C(=O)c2ccccc2)ccc1O` (centres unmarked) [Compound 13, 2-Benzyl-5-(4-hydroxy-3-methoxyphenyl)-1-phenylpentane-1,3-dione], the inhibition at 3 µM in data set [1] stood at 14%; at 5-lipoxygenase, 51%; on TRPV1 receptor it was 48%; in data set [2] it was 6%; in data set [3] it was 15%; in data set [4], 73%. The inhibition at 30 µM was 77% in data set [1]; 98% at 5-lipoxygenase; -67% on TRPV1 receptor; 78% in data set [2]; 66% in data set [3]; 99% in data set [4]. For the same compound, the results for the “Decrease in cell viability (%)” value in the data set with WI-38 cells (3 μM) and in the data set with WI-38 cells (30 μM) were −4% and −3%, respectively. For the same compound, the Emax at 3 µM at TRPV1 receptor amounted to 75%. Moreover, on TRPV1 receptor, the Emax at 30 µM is 245%.
Consider `COc1cc(CCC(=O)C(C)C(=O)C(C)(C)C)ccc1O` (centres unmarked) [Compound 4, 1-(4-Hydroxy-3-methoxyphenyl)-4,6,6-trimethyl-heptane-3,5-dione], for which the inhibition at 3 µM is -3% in data set [1]; 15% at 5-lipoxygenase; -58% at TRPV1 receptor; 7% in data set [2]; 0% in data set [3]; 49% in data set [4]. Also, the inhibition at 30 µM in data set [1] was 17%; on 5-lipoxygenase it was 73%; at TRPV1 receptor, -24%; in data set [2] it was 14%; in data set [3] it was 10%; in data set [4] it was 96%. Further, the “Decrease in cell viability (%)” value is recorded as −3% in the data set with WI-38 cells (3 μM) and 10% with WI-38 cells (30 μM). Besides, the Emax at 3 µM at TRPV1 receptor came out at 36%. For the same compound, the Emax at 30 µM on TRPV1 receptor amounted to 63%.
For `COc1cc(CCC(=O)CC(=O)c2ccc(O)c(OC)c2)ccc1O` [Compound 15, 1,5-Bis(4-hydroxy-3-methoxyphenyl)-pentane-1,3-dione], the inhibition at 3 µM in data set [1] stood at 13%; at 5-lipoxygenase it was 16%; at TRPV1 receptor, 18%; in data set [2], 0%; in data set [3], 0%; in data set [4] it was 49%. Further, the inhibition at 30 µM in data set [1] stood at 29%; on 5-lipoxygenase it was 63%; at TRPV1 receptor, 27%; in data set [2] it was 13%; in data set [3], 54%; in data set [4], 95%. Also, the “Decrease in cell viability (%)” value is on record as −2% in the data set with WI-38 cells (3 μM) and −1% in the data set on WI-38 cells (30 μM). Besides, on TRPV1 receptor, the Emax at 3 µM amounted to 34%. The Emax at 30 µM at TRPV1 receptor stood at 34%.
As to `COc1cc(CCC(=O)C(C)(C)C(=O)C(C)(C)C)ccc1O` [Compound 71, 1-(4-Hydroxy-3-methoxyphenyl)-4,4,6,6-tetramethylheptane-3,5-dione], the inhibition at 3 µM is -1% in data set [1]; 6% on 5-lipoxygenase; 26% at TRPV1 receptor; 0% in data set [2]; 3% in data set [3]; 41% in data set [4]. For the same compound, the inhibition at 30 µM in data set [1] was found to be 20%; at 5-lipoxygenase, 48%; on TRPV1 receptor, 29%; in data set [2] it was 35%; in data set [3], 53%; in data set [4], 95%. For the same compound, the “Decrease in cell viability (%)” value in the data set with WI-38 cells (3 μM) was −1%; in the data set on WI-38 cells (30 μM), 11%. In addition, at TRPV1 receptor, the Emax at 3 µM is 48%. The Emax at 30 µM at TRPV1 receptor was 38%.
Take `COC(=O)c1ccc(C(=O)CC(=O)CCc2ccc(O)c(OC)c2)cc1` [Compound 25, Methyl 4-(5-(4-hydroxy-3-methoxyphenyl)-3-oxopentanoyl)benzoate]: the inhibition at 3 µM in data set [1] was -3%; at 5-lipoxygenase, 54%; at TRPV1 receptor, 18%; in data set [2], 1%; in data set [3], 12%; in data set [4], 58%. In addition, the inhibition at 30 µM in data set [1] came out at 20%; on 5-lipoxygenase, 94%; on TRPV1 receptor, 21%; in data set [2], 43%; in data set [3], 35%; in data set [4] it was 102%. Besides, the “Decrease in cell viability (%)” value was −6% with WI-38 cells (3 μM) and 0% in the data set on WI-38 cells (30 μM). Further, the Emax at 3 µM at TRPV1 receptor is 48%. Besides, on TRPV1 receptor, the Emax at 30 µM was 59%.
